# Changes are numbered by the printed parent chain. pKd: −log10 of the molar value.
# Experiments:
# [1] = molecular target: T1, epsin 1 ENTH domain (SEQ ID NO: 1) variant C96A (Homo sapiens, UniProt Q9Y6I3, C96A); assay: SPR equilibrium binding of epsin1 ENTH C96A to phosphoinositide-containing LUVs; details: POPC/POPS/PtdIns(4,5)P2 (77:20:3) LUVs, 20 mM Tris-HCl pH 7.4, 0.16 M KCl, read-out: Kd for PtdIns(4,5)P2
# T1 construct: The Epsin1 ENTH domain (1-158 amino acids) was subcloned; GST (C, cleaved yes); made in house; host or cells: E. coli BL21 RIL codon plus
# T1 sequence (Q9Y6I3 1-158 C96A): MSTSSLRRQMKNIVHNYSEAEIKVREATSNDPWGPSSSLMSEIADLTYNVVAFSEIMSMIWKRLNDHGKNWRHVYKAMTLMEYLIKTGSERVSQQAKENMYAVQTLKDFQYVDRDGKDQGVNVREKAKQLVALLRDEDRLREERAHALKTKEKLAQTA
# Text: (§1) The ENTH domain was engineered to introduce a single labeling site (M10C) on the membrane binding surface while removing an endogenous Cys (C96A). We also performed the S4W mutation to suppress its residual affinity for another lipid, phosphatidylinositol-3,4,5-trisphosphate (PtdIns(3,4,5)P3) (PtdIns(4,5)P2/PtdIns(3,4,5)P3=4 for wild type and >10 for the mutant) and to enhance the overall affinity for PtdIns(4,5)P2-containing membranes (ca. 4-fold) (Table 1).
# (§2) With respect to FIG. 1, an L1 sensor chip was coated with POPC/POPS/PtdIns(4,5)P2 (77:20:3) LUVs. The proteins were incubated with a given concentration of IP3 for 5 minutes before injecting into the SPR instrument. Kinetic SPR measurements were performed in 20 mM Tris-HCL, pH 7.4, containing 0.16 KCl. […] A lower concentration of DAN-eENTH was used than that of PLCδ PH because the former has much higher affinity that the latter.
# All mutations (S4W, M10C, and C96A) were performed by polymerase chain reaction mutagenesis and verified by DNA sequencing. eENTH may comprise the following sequence:
# E. coli BL21 RIL codon plus (Stratagene) cells were used for protein expression. Cells were grown in Luria broth media containing 100 μg/ml of ampicillin at 37° C. 0.1 mM of Isopropyl β-D-1-thiogalactopyranoside was added to induce over-expression of recombinant proteins when the OD600 reached 0.5-0.8 and cells were grown for additional 6 to 10 hours at 25° C. Cells were harvested by centrifugation and cell pellets were resuspended in 50 mM Tris-HCl buffer (pH 7.4) containing 160 mM KCl, 1 mM phenylmethanesulphonylfluoride, and 5 mM of dithiothreitol (DTT). Cells were lysed by sonication and the lysate was collected by centrifugation at 4° C. […] Purity and the concentration of the recombinant proteins were determined by sodium dodecylsulfate-polyacrylamide gel electrophoresis and bicinchoninic acid assay, respectively. The DAN labeling yield of eENTH, which was calculated as the molar ratio of DAN (determined spectrophotometrically at 391 nm using its extinction coefficient of 20,000 cm^−1 M^−1) to protein, was typically 60-70%. […]
# [2] = molecular target: T2, epsin 1 ENTH domain, wild type, SEQ ID NO: 1 (Homo sapiens, UniProt Q9Y6I3); assay: SPR equilibrium binding of epsin1 ENTH domain (wild type) to phosphoinositide-containing LUVs
# T2 construct: The Epsin1 ENTH domain (1-158 amino acids) was subcloned; GST (C, cleaved yes); made in house; host or cells: E. coli BL21 RIL codon plus
# T2 sequence (Q9Y6I3 1-158): T1 sequence (Q9Y6I3 1-158 C96A) with A96C
# Text: as §1, §2
# The Epsin1 ENTH domain (1-158 amino acids) was subcloned into the pGEX4T-1 vector and expressed as a […] glutathione S-transferase (GST)-tagged protein. The ENTH domain amino acid sequence is as follows:
# E. coli BL21 RIL codon plus (Stratagene) cells were used for protein expression. Cells were grown in Luria broth media containing 100 μg/ml of ampicillin at 37° C. 0.1 mM of Isopropyl β-D-1-thiogalactopyranoside was added to induce over-expression of recombinant proteins when the OD600 reached 0.5-0.8 and cells were grown for additional 6 to 10 hours at 25° C. Cells were harvested by centrifugation and cell pellets were resuspended in 50 mM Tris-HCl buffer (pH 7.4) containing 160 mM KCl, 1 mM phenylmethanesulphonylfluoride, and 5 mM of dithiothreitol (DTT). Cells were lysed by sonication and the lysate was collected by centrifugation at 4° C. The GST-affinity resin (GenScript) for GST-tagged proteins or nickel-nitrilotriacetic acid resin (Qiagen, Valencia, Calif.) for His6-tagged proteins was added into the cell lysate and the mixture was gently shaken for 30 minutes at 4° C. The mixture was applied to a column and the column was washed once with 50 mM Tris-HCl buffer (pH 7.4) containing 160 mM KCl and 5 mM of DTT to reduce thiol group, and washed several times with the same buffer without DTT to remove DTT. For DAN labeling, 100 μg of acrylodan was added to the column at this stage and incubated 16 hours at 4° C. The excess acrylodan was removed by washing the column with the buffer several times. […] Purity and the concentration of the recombinant proteins were determined by sodium dodecylsulfate-polyacrylamide gel electrophoresis and bicinchoninic acid assay, respectively. The DAN labeling yield of eENTH, which was calculated as the molar ratio of DAN (determined spectrophotometrically at 391 nm using its extinction coefficient of 20,000 cm^−1 M^−1) to protein, was typically 60-70%. […]
# [3] = molecular target: T3, epsin 1 ENTH domain (SEQ ID NO: 1) variant C96A/S4W (eENTH; SEQ ID NO: 2) (Homo sapiens, UniProt Q9Y6I3, C96A/M10C/S4W); assay: SPR equilibrium binding of epsin1 ENTH C96A/S4W (eENTH) to phosphoinositide-containing LUVs; details: S4W mutant
# T3 construct: The Epsin1 ENTH domain (1-158 amino acids) was subcloned; GST (C, cleaved yes); made in house; host or cells: E. coli BL21 RIL codon plus
# T3 sequence (Q9Y6I3 1-158 S4W/M10C/C96A): T1 sequence (Q9Y6I3 1-158 C96A) with S4W, M10C
# Text: as §1
# as §2, with “latter. […]” for “latter.”
# (§3) E. coli BL21 RIL codon plus (Stratagene) cells were used for protein expression. […] Purity and the concentration of the recombinant proteins were determined by sodium dodecylsulfate-polyacrylamide gel electrophoresis and bicinchoninic acid assay, respectively. The DAN labeling yield of eENTH, which was calculated as the molar ratio of DAN (determined spectrophotometrically at 391 nm using its extinction coefficient of 20,000 cm^−1 M^−1) to protein, was typically 60-70%. […]
# [4] = system: epsin 1 ENTH domain (SEQ ID NO: 1) variant C96A/S4W (eENTH; SEQ ID NO: 2); assay: as above; details: S4W mutation, Table 1
# Text: as §1
# as §2, with “latter. […]” for “latter.”
# as §3
# PLCδ-PH (PLCδ PH domain) = molecular target: T4, PLCδ-PH (PLCδ PH domain) (Homo sapiens, UniProt P51178); assay: SPR equilibrium binding of PLCδ-PH to phosphoinositide-containing LUVs; details: POPC/POPS/PtdIns(4,5)P2 (77:20:3) LUVs, 20 mM Tris-HCl pH 7.4, 0.16 M KCl, read-out: Kd for PtdIns(4,5)P2
# T4 sequence (P51178 21-130 limits assumed): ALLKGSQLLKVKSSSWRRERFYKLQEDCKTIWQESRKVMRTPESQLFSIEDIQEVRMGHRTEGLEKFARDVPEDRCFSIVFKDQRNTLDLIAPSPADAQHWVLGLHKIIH
# Procedure: as §2, with “1, an L1 sensor chip was coated with POPC/POPS/PtdIns(4,5)P2 (77:20:3) LUVs.” left out
# LUVs were prepared by extrusion using a 100 nm-pore membrane. GUVs were prepared by electroformation. The lipid mixture were prepared in chloroform/methanol (3:1) at a total concentration of 0.4 mg/ml, then the lipid solution was spread onto the indium-tin oxide electrode surface and the lipid was dried under vacuum to form a uniform lipid film. Vesicles were grown in a sucrose solution (350 mM) while an electric field (3V, 20 Hz frequency) was applied for 5 hour at room temperature. After 1 to […] of sucrose-loaded GUV solution was added into a well glued onto a coverslip that was placed on the microscope stage. The well contained […] of 20 mM Tris-HCl buffer, pH 7.4, with 0.16 M KCl solution. The diameter of GUVs ranged from 5 to 30 μm.
smiles,measurement,setting,value
"CCCCCCCCCCCCCCCC(=O)OC[C@H](COP(=O)(O)O[C@@H]1[C@H](O)[C@H](O)[C@@H](OP(=O)(O)O)[C@H](OP(=O)(O)O)[C@H]1O)OC(=O)CCCCCCCCCCCCCCC [PtdIns(4,5)P2, phosphatidylinositol-4,5-bisphosphate]",pKd,[1],7.28
same,pKd,"[2]; SPR, POPC/POPS/PtdIns(4,5)P2 (77:20:3) LUVs, 20 mM Tris-HCl pH 7.4, 0.16 M KCl, read-out: Kd for PtdIns(4,5)P2",7.30
same,"PtdIns(4,5)P2/PtdIns(3,4,5)P3 selectivity",[2]; wild type,4
same,"PtdIns(4,5)P2/PtdIns(3,4,5)P3 selectivity",[3],> 10
same,"enhancement of overall affinity for PtdIns(4,5)P2-containing membranes",[4],ca. 4 fold
same,pKd,PLCδ-PH (PLCδ PH domain),6.74
